The source of these data is ChEMBL document CHEMBL1123500, “Synthesis and antitumor activity of tropolone derivatives. 3” (1986).

A short description of experiment [1]: In vitro inhibition of KB cell growth. It is filed as functional, Homo sapiens.
The subject of experiment [2] is P388. Briefly: Antitumor activity in P388 inoculated mice following 10 mg/kg i.p. administration. It is filed as functional, Mus musculus. The conditions noted are these: route intraperitoneal.
For experiment [3], the system named is P388. Kind of experiment: Antitumor activity against P388, was determined by injecting intraperitoneally in mice, at a dose of 20 mg/kg. In kind it is functional, Mus musculus. The following applies: route intraperitoneal.
For experiment [4], the system named is P388. Briefly: Antitumor activity in P388 inoculated mice following 5 mg/kg i.p. administration. In kind it is functional, Mus musculus. The following applies: route intraperitoneal.
Experiment [5] relates to P388. Kind of experiment: Antitumor activity against P388, was determined by injecting intraperitoneally in mice, at a dose of 1.3 mg/kg. The following applies: route intraperitoneal. In kind it is functional, Mus musculus.
Experiment [6] deals with P388. Kind of experiment: Antitumor activity against P388, was determined by injecting intraperitoneally in mice, at a dose of 2.5 mg/kg. The conditions noted are these: route intraperitoneal. It is filed as functional, Mus musculus.
In experiment [7] the test system is P388. Briefly: Antitumor activity against P388, was determined by injecting intraperitoneally in mice, at a dose of 100 mg/kg. In kind it is functional, Mus musculus. The following applies: route intraperitoneal.
The subject of experiment [8] is P388. Briefly: Antitumor activity against P388, was determined by injecting intraperitoneally in mice, at a dose of 50 mg/kg. It is filed as functional, Mus musculus. The following applies: route intraperitoneal.
Experiment [9] relates to P388. Kind of experiment: Antitumor activity against P388, was determined by injecting intraperitoneally in mice, at a dose of 10 mg/kg. It is filed as functional, Mus musculus. The following applies: route intraperitoneal.
For experiment [10], the system named is P388. Briefly: Antitumor activity against P388, was determined by injecting intraperitoneally in mice, at a dose of 200 mg/kg. In kind it is functional, Mus musculus. The conditions noted are these: route intraperitoneal.
Experiment [11] relates to P388. Briefly: Antitumor activity against P388, was determined by injecting intraperitoneally in mice, at a dose of 400 mg/kg. It is filed as functional, Mus musculus. The conditions noted are these: route intraperitoneal.
Experiment [12] deals with P388. Briefly: Antitumor activity against P388, was determined by injecting intraperitoneally in mice, at a dose of 5 mg/kg. The conditions noted are these: route intraperitoneal.

One may read the T/C as the result in the treated group divided by that in the control group, in per cent.

Where only a bound is given, the exact number is not on record here.

Turning to `CC(C)c1ccc(C(c2ccc3c(c2)OCO3)c2ccc(C(C)C)cc(=O)c2O)c(O)c(=O)c1`, in experiment [1], the Activity came out at 0.5 µg/mL. The T/C in experiment [2] is given as 193%; in [3] it was 186%; in experiment [4], 182%.

Take `COc1cc(C(c2ccc(C(C)C)cc(=O)c2O)c2ccc(C(C)C)cc(=O)c2O)cc(OC)c1OC`: the Activity in [1] was less than 0.3 µg/mL. The T/C is given as 151% in [2], 162% in experiment [3] and 142% in experiment [4].

Regarding `CC(C)c1ccc(C(c2ccc(OCC(=O)[O-])cc2)c2ccc(C(C)C)cc(=O)c2O)c(O)c(=O)c1.[Na+]`, the Activity in experiment [1] turned out to be 2.6 µg/mL. Further, the T/C in experiment [2] stood at 0%; in experiment [4], 109%.

On to `CC(C)c1ccc(C(c2ccc(C(=O)O)cc2)c2ccc(C(C)C)cc(=O)c2O)c(O)c(=O)c1`, for which, in [1], the Activity stood at 0.5 µg/mL. Moreover, the T/C in [5] is given as 124%; in experiment [2] it was 139%; in [6], 154%; in [3], 0%.

`CC(C)c1ccc(C(c2ccc(OCc3ccccc3)cc2)c2ccc(C(C)C)cc(=O)c2O)c(O)c(=O)c1` registered an Activity in [1] of 4.65 µg/mL. In addition, the values for the T/C in experiment [7], in experiment [3] and in experiment [8] were 152%, 101% and 148%, respectively.

`COc1ccc(C(c2ccc(C(C)C)cc(=O)c2O)c2ccc(C(C)C)cc(=O)c2O)cc1` showed an Activity in [1] of less than 0.3 µg/mL. The T/C was found to be 170% in [2], 170% in [9], 134% in [6] and 173% in experiment [4].

For `CC(C)c1ccc(C(c2ccc(O)cc2)c2ccc(C(C)C)cc(=O)c2O)c(O)c(=O)c1`, the Activity in [1] is less than 0.3 µg/mL. In addition, the T/C amounted to 139% in experiment [5], 0% in experiment [2] and 195% in experiment [4].

In turn, `CC(C)c1ccc(C(c2ccc(C(c3ccc(C(C)C)cc(=O)c3O)c3ccc(C(C)C)cc(=O)c3O)cc2)c2ccc(C(C)C)cc(=O)c2O)c(O)c(=O)c1` yielded an Activity in [1] of 100 µg/mL. The figures for the T/C in experiment [2], in experiment [3] and in [4] were 105%, 100% and 107%, respectively.

Turning to `COC(=O)c1ccc(C(c2ccc(C(C)C)cc(=O)c2O)c2ccc(C(C)C)cc(=O)c2O)cc1`, the Activity in experiment [1] turned out to be 0.5 µg/mL. The values for the T/C in experiment [2], in experiment [3] and in experiment [4] were 128%, 0% and 145%, respectively.

In turn, `CC(C)c1ccc(C(c2ccccc2)c2ccc(C(C)C)cc(=O)c2O)c(O)c(=O)c1` had an Activity in experiment [1] of less than 0.3 µg/mL. Besides, the T/C in experiment [5] turned out to be 132%; in [2] it was 0%; in [6] it was 150%; in [4] it was 188%.

As for `CC(C)c1ccc(C(c2ccc(N)cc2)c2ccc(C(C)C)cc(=O)c2O)c(O)c(=O)c1`, the results for the T/C in experiment [2], in experiment [3] and in experiment [4] were 147%, 147% and 138%, respectively.

Regarding `CCOC(=O)COc1ccc(C(c2ccc(C(C)C)cc(=O)c2O)c2ccc(C(C)C)cc(=O)c2O)cc1`, the T/C in experiment [9] is 0%; in experiment [3] it was 0%; in experiment [4], 125%.

As to `CC(C)c1ccc(C(c2ccc(OCc3ccccc3)cc2)C(c2ccc(OCc3ccccc3)cc2)c2ccc(C(C)C)cc(=O)c2O)c(O)c(=O)c1` (stereo unspecified), the Activity in experiment [1] is less than 100 µg/mL.

With `CC(C)c1ccc(C(c2ccc(C(C)C)cc(=O)c2O)c2cccc3ccccc23)c(O)c(=O)c1`, the Activity in [1] turned out to be 2.6 µg/mL. In addition, the values for the T/C in experiment [2], in [3] and in experiment [4] were 178%, 178% and 180%, respectively.

In turn, `CC(C)c1ccc(C(c2ccc([N+](C)(C)C)cc2)c2ccc(C(C)C)cc(=O)c2O)c(O)c(=O)c1.[I-]` yielded an Activity in experiment [1] of 2.5 µg/mL. The T/C was 95% in experiment [2], 91% in experiment [3] and 102% in experiment [4].

For `CC(C)c1ccc(C(c2cccc3ccccc23)C(c2ccc(C(C)C)cc(=O)c2O)c2cccc3ccccc23)c(O)c(=O)c1` (stereo unspecified), the Activity in experiment [1] is less than 100 µg/mL. Further, the figures for the T/C in experiment [7], in experiment [10] and in [11] were 98%, 96% and 95%, respectively.

Regarding `CC(C)c1ccc(C(c2cccs2)c2ccc(C(C)C)cc(=O)c2O)c(O)c(=O)c1`, the Activity in experiment [1] was 0.6 µg/mL. Further, the T/C is 57% in experiment [2], 178% in [4] and 178% in experiment [12].

Turning to `CC(C)c1ccc(C(c2ccc(-c3ccccc3)cc2)c2ccc(C(C)C)cc(=O)c2O)c(O)c(=O)c1`, the Activity in [1] is 2.5 µg/mL. Besides, the T/C amounted to 138% in [2], 127% in experiment [3] and 111% in experiment [4].

`COc1ccc(C(c2ccc(C(C)C)cc(=O)c2O)C(c2ccc(OC)cc2)c2ccc(C(C)C)cc(=O)c2O)cc1` (stereo unspecified) yielded an Activity in [1] of 5.2 µg/mL. Also, the T/C in experiment [7] was 138%; in [10], 140%; in experiment [11], 139%.

On to `CC(=O)Nc1ccc(C(c2ccc(C(C)C)cc(=O)c2O)c2ccc(C(C)C)cc(=O)c2O)cc1`, for which the Activity in experiment [1] is less than 0.3 µg/mL. Also, the T/C worked out at 128% in experiment [2], 0% in experiment [3] and 171% in experiment [4].

Consider `CC(C)c1ccc(C(c2ccco2)c2ccc(C(C)C)cc(=O)c2O)c(O)c(=O)c1`, for which the T/C in experiment [5] stood at 132%; in experiment [2], 0%; in experiment [6], 142%; in experiment [4] it was 177%.
